Calls of active or inactive are those of the source.
How the values were obtained:
[1] = biological target: Neurotensin receptor type 1 (Homo sapiens, UniProt P30989); format: functional;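 also: Image-based confirmatory dose-response assay measuring agonist activity at NTR1; NTR1-expressing U2OS osteosarcoma cells imaged for beta-arrestin GFP spot formation; agonist potency where compounds increase beta-arrestin recruitment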
[2] = biological target: T1, Replicative DNA helicase DnaB (Mycobacterium tuberculosis, UniProt P9WMR3); assay: DnaB intein splicing inhibitors, dose response, biochemical, cell-free fluorescence (AID 449749); format: functional
T1 sequence (P9WMR3 whole entry): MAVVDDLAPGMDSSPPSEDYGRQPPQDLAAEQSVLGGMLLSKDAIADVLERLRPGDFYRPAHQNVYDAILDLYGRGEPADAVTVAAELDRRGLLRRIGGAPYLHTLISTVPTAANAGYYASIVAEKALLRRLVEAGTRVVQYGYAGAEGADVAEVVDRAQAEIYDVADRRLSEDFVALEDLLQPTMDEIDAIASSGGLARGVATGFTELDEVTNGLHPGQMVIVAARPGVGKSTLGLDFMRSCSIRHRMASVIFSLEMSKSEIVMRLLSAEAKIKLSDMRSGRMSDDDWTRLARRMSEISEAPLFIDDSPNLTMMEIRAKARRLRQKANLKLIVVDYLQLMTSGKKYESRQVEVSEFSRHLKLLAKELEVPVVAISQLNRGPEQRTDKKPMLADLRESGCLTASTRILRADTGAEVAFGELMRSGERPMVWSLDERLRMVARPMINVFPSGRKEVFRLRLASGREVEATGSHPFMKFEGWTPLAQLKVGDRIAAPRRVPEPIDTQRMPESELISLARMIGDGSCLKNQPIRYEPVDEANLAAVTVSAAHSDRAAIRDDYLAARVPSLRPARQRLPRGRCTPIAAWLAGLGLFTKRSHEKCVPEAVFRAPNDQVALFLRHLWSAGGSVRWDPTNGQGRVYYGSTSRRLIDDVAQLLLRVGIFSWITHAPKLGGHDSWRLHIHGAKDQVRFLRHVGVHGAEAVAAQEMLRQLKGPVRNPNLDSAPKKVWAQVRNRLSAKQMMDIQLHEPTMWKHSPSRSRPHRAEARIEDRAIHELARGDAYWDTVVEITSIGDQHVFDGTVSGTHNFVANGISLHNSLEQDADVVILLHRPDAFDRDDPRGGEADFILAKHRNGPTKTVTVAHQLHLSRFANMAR

[3] = Luminescence Cell-Based Dose Retest to Confirm Inhibitors of Cancer Stem Cells. [Related pubchem assays (depositor defined):AID2717, AID2721]; format: functional; conditions: Homo sapiens
Nonstructural protein 1 = Nonstructural protein 1 (Influenza A virus, UniProt Q194T2); format: functional, Influenza A virus (A/California/07/2009(H1N1))
Sequence of Nonstructural protein 1 (Q194T2 whole entry): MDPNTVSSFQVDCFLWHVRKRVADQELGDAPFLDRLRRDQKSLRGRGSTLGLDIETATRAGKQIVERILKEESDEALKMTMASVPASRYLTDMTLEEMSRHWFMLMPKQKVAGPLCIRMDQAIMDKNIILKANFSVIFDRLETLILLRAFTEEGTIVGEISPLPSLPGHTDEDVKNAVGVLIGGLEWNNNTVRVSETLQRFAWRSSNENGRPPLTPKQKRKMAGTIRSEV

Protein RecA = biological target: T2, Protein RecA (Mycobacterium tuberculosis, UniProt P9WHJ3); assay: Fluorescence Cell-Free Homogeneous Dose Retest to Identify Inhibitors of RecA-Intein Splicing Activity. [Related pubchem assays (depositor defined):AID2097, AID2223, AID489010, AID492950]; format: functional
T2 sequence (P9WHJ3 whole entry): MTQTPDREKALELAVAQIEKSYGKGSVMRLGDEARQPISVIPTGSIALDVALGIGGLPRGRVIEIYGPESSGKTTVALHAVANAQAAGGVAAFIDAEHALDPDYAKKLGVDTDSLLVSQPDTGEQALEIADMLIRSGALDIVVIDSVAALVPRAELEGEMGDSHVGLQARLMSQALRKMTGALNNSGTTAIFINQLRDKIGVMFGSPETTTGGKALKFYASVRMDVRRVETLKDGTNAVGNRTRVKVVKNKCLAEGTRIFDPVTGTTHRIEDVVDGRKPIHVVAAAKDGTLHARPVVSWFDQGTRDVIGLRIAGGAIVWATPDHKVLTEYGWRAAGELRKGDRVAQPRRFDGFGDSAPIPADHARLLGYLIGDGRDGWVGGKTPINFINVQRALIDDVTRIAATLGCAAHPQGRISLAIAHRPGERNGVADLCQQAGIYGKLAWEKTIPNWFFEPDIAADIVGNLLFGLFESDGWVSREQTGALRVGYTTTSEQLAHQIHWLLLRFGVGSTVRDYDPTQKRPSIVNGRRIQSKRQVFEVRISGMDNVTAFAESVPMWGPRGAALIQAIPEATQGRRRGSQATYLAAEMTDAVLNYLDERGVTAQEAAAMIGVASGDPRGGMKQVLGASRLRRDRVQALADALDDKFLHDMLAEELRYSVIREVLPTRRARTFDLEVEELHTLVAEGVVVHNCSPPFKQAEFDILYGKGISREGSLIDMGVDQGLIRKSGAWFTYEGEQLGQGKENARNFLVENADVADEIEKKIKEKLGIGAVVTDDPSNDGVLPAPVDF

[4] = biological target: Multidrug resistance protein CDR2 (Candida albicans (strain SC5314 / ATCC MYA-2876) (Yeast), UniProt P78595); assay: CaCDR2 efflux pump inhibitors in yeast, dose response, S. cerevisiae AD1-8u, singleplex, Cherry Pick1 hits (AID 588604); format: functional
Sequence of Multidrug resistance protein CDR2 (P78595 whole entry): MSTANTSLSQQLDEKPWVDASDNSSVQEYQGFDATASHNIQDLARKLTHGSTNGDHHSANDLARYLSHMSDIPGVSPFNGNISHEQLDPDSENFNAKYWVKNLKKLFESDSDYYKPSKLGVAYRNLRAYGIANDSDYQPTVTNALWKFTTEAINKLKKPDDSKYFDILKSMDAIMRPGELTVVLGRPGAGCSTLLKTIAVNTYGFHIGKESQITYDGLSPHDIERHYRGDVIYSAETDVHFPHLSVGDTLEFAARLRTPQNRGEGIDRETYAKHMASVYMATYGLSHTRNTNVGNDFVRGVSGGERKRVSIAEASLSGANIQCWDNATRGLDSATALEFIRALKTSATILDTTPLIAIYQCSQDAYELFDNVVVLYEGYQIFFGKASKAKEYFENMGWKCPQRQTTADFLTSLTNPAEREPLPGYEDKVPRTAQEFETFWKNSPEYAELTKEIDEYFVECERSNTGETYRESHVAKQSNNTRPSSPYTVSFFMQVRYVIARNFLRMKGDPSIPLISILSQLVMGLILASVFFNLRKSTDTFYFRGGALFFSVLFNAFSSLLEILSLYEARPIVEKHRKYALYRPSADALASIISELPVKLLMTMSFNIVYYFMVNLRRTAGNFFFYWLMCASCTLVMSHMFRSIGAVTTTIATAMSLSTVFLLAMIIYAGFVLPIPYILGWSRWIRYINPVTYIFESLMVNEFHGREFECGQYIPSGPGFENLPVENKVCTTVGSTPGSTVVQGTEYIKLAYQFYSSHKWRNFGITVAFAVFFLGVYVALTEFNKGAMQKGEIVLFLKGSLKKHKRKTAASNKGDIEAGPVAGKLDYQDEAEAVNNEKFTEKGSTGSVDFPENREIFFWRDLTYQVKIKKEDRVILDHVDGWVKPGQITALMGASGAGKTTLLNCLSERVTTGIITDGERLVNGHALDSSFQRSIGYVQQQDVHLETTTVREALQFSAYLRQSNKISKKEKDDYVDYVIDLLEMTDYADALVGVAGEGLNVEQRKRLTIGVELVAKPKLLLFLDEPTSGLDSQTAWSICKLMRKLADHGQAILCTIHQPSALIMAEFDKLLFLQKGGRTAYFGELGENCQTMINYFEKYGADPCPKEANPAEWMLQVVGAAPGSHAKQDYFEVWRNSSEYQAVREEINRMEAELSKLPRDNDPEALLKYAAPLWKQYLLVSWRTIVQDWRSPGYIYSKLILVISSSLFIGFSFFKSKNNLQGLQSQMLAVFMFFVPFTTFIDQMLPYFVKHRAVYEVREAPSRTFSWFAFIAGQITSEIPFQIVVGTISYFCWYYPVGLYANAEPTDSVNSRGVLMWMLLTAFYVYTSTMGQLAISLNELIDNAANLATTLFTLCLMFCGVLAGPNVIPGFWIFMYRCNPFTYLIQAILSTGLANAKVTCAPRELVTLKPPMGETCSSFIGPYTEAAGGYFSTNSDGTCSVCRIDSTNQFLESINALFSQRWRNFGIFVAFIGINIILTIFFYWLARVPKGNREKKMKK

Sequence of Neurotensin receptor type 1 (P30989 whole entry): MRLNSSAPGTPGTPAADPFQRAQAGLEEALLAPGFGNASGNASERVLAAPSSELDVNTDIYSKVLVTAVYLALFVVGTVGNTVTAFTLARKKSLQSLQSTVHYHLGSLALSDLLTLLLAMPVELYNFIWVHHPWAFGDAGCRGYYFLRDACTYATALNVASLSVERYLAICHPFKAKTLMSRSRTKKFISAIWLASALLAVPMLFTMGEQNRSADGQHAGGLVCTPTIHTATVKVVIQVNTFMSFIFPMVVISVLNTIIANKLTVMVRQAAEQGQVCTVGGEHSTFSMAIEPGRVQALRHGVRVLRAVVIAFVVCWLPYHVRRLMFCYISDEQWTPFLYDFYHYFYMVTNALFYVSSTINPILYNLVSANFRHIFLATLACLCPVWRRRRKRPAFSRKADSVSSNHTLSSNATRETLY

CCCCCc1cc(=O)oc2c(C(CCN3CCCC(C)C3)c3ccc(N(C)C)cc3)c(OC)cc(OC)c12 (stereo unspecified)
active: EC50 [1] 17.7 µM | AC50 [2] 8.48 µM | AC50 [3] 5.3 µM | IC50 (Nonstructural protein 1) 5.48 µM | EC50 (Protein RecA) 8.08 µM | EC50 [4] 25.4 µM
